Reference: ChEMBL document CHEMBL5390306, “Development of Conformationally Restricted Negamycin Derivatives for Potent Readthrough Activity” (ACS Med Chem Lett, 2023)
Calls of active or inactive are those of the source. The rule behind the calls is not given here.

Legend:
Type in all cases: functional, cell-based
[1] = system: Premature termination codon; test: Readthrough activity against UGA type PTC 5'-TTGAAAGAGCAATAAAATGGCTTCAAC-3' from DMD mdx mouse overexpressed in COS7 cells assessed as ratio of luciferase activity to beta-galactosidase activity at 200 uM incubated for 48 hrs by Dual luciferase reporter assay
[2] = system: Premature termination codon; test: Readthrough activity against UGA type PTC 5'-TTGAAAGAGCAATAAAATGGCTTCAAC-3' from DMD mdx mouse overexpressed in COS7 cells assessed as ratio of luciferase activity to beta-galactosidase activity incubated for 48 hrs by Dual luciferase reporter assay; details: dose 6.25-200 µM
[3] = system: Premature termination codon; test: Readthrough activity against UAG type PTC 5'-TTGAAAGAGCAATAAAATGGCTTCAAC-3' from DMD mdx mouse overexpressed in COS7 cells assessed as ratio of luciferase activity to beta-galactosidase activity at 200 uM incubated for 48 hrs by Dual luciferase reporter assay
[4] = system: Premature termination codon; test: Readthrough activity against UAA type PTC 5'-TTGAAAGAGCAATAAAATGGCTTCAAC-3' from DMD mdx mouse overexpressed in COS7 cells assessed as ratio of luciferase activity to beta-galactosidase activity at 200 uM incubated for 48 hrs by Dual luciferase reporter assay
[5] = system: Premature termination codon; test: Readthrough activity against UGA type PTC 5'-TTGAAAGAGCAATAAAATGGCTTCAAC-3' from DMD mdx mouse overexpressed in COS7 cells assessed as readthrough efficiency at 200 uM incubated for 48 hrs by Dual luciferase reporter assay relative to control
[6] = system: Premature termination codon; test: Readthrough activity against UGA type PTC 5'-TTGAAAGAGCAATAAAATGGCTTCAAC-3' from DMD mdx mouse overexpressed in COS7 cells assessed as ratio of luciferase activity to beta-galactosidase activity at 6.25 to 200 uM incubated for 48 hrs by Dual luciferase reporter assay; details: dose 6.25-200 µM
[7] = system: Premature termination codon; test: Potency index, ratio of G418 to test compound for readthrough activity against UGA type PTC 5'-TTGAAAGAGCAATAAAATGGCTTCAAC-3' from DMD mdx mouse overexpressed in COS7 cells at 200 uM incubated for 48 hrs by Dual luciferase reporter assay
[8] = system: Premature termination codon; test: Potency index, ratio of 2,6-diaminopurine to test compound for readthrough activity against UGA type PTC 5'-TTGAAAGAGCAATAAAATGGCTTCAAC-3' from DMD mdx mouse overexpressed in COS7 cells at 200 uM incubated for 48 hrs by Dual luciferase reporter assay

## CC(C)C[C@H](N)C(=O)N[C@H](CC(=O)NN(C)CC(=O)O)[C@H]1C[C@H]1CN
[1]
  Ratio: 3.08

## CN[C@@H]1[C@@H](O)[C@@H](O[C@@H]2[C@@H](O)[C@H](O[C@H]3O[C@H]([C@@H](C)O)[C@@H](O)[C@H](O)[C@H]3N)[C@@H](N)C[C@H]2N)OC[C@]1(C)O
[1]
  Ratio: 6.01
[2]
  Activity: Dose-Dependent Effect
[3]
  Ratio: 4.68
[4]
  Ratio: 4.5
[5]
  Activity: 1.71%

## CCCCCC/C=C/C[C@H](N)C(=O)N[C@H](CC(=O)NN(C)CC(=O)O)[C@H]1C[C@H]1CN
[1]
  Ratio: 16.9

## CCCCCCCCC[C@H](N)C(=O)N[C@@H](CCCN)CC(=O)NN(C)CC(=O)O
[1]
  Ratio: 19.5

## CC(C)C[C@@H](N)C(=O)N[C@H](CC(=O)NN(C)CC(=O)O)[C@H]1C[C@H]1CN
[1]
  Ratio: 1.01

## COCCCCCCC[C@H](N)C(=O)N[C@H](CC(=O)NN(C)CC(=O)O)[C@H]1C[C@H]1CN
[1]
  Ratio: 1.94

## CN(CC(=O)O)NC(=O)C[C@H](N)C[C@@H](O)CN
[1]
  Ratio: 1.55
[3]
  Ratio: 0.91
[4]
  Ratio: 1.31

## O=C(O)c1cccc(-c2noc(-c3ccccc3F)n2)c1
[6]
  Activity: Active

## CCCC(=O)NCCCC[C@H](N)C(=O)N[C@H](CC(=O)NN(C)CC(=O)O)[C@H]1C[C@H]1CN
[1]
  Ratio: 2.05

## CN(CC(=O)O)NC(=O)C[C@@H](NC(=O)[C@@H](N)CCCCCCCO)[C@H]1C[C@H]1CN
[1]
  Ratio: 3.25

## CCCCCCCCC[C@H](N)C(=O)N[C@H](CC(=O)NN(C)CC(=O)O)[C@H]1C[C@H]1CN
[1]
  Ratio: 23
[2]
  Activity: Dose-Dependent Effect
[7]
  fold change (FC): 2
[8]
  fold change (FC): 2
[3]
  Ratio: 11.4
[4]
  Ratio: 1.81
[5]
  Activity: 2.88%

## Nc1nc(N)c2nc[nH]c2n1
[2]
  Activity: Dose-Dependent Effect

## CN(CC(=O)O)NC(=O)C[C@@H](N)[C@H]1C[C@H]1CN
[1]
  Ratio: 8.36
[2]
  Activity: Dose-Dependent Effect
[3]
  Ratio: 6.24
[4]
  Ratio: 1.3

## CN(CC(=O)O)NC(=O)C[C@@H](N)CCCN
[1]
  Ratio: 2.69
[3]
  Ratio: 1.95
[4]
  Ratio: 1.22

## CCCCCCC(=O)NC[C@H](N)C(=O)N[C@H](CC(=O)NN(C)CC(=O)O)[C@H]1C[C@H]1CN
[1]
  Ratio: 1.38
